Where a name gives a salt, the structure may show the parent alone.
Key:
ApoE = ApoE expression in vivo (western blot, qRT-PCR) in mouse tissues, white blood cells and tumors; conditions: for ApoE protein expression in systemic adipose, lung, and brain tissues: chow 20 mg/kg for 10 days, western blot; for ApoE transcript levels in circulating white blood cells: diet 20 mg/kg for 10 days
Procedure: FIG. 29A-K. Therapeutic Delivery of LXR Agonists Upregulates Melanoma-Derived and Systemic ApoE Expression. (FIG. 29A-FIG. 29B) ApoE expression levels, quantified by qRT-PCR, in subcutaneous tumors formed by B16F10 mouse melanoma cells injected into C57BL/6 mice. After 5-mm3 tumor formation, mice were fed a control diet or diet containing GW3965 (20 mg/kg) (FIG. 29A) or T0901317 (20 mg/kg) (FIG. 29B) for 7 days. n=3-4. (FIG. 29C-FIG. 29E) ApoE transcript expression in primary tumors (FIG. 29C), lung metastases (FIG. 29D), and brain metastases (FIG. 29E) formed by MeWo human melanoma cells grafted onto NOD Scid mice that were administered control chow or chow supplemented with GW3965 (20 mg/kg). ApoE levels were assessed on day 35 (FIG. 29C), day 153 (FIG. 29D), and day 34 (FIG. 29E) post-injection of the cancer cells. n=3-5. (FIG. 29F) Relative expression levels of LXRα, LXRβ, and ApoE were determined by qRT-PCR in B16F10 mouse melanoma cells expressing a control hairpin or an shRNA targeting mouse LXRα (sh_mLXRα), mouse LXRβ (sh_mLXRβ), or mouse ApoE (sh_mApoE). (FIG. 29G-FIG. 29H) ApoE (FIG. 29G) and ABCA1 (FIG. 29H) mRNA levels, measured by qRT-PCR, in B16F10 cells expressing a control shRNA or shRNAs targeting mouse LXRβ or mouse ApoE. The cells were treated with DMSO or GW3965 at 5 μM for 48 hours. n=3. (FIG. 29I) ABCA1 mRNA levels, measured by qRT-PCR, in systemic white blood cells extracted from LXRα−/− or LXRβ−/− mice fed a control diet or a GW3965-supplemented diet (20 mg/kg) for 10 days. n=3-4. (FIG. 29J) Relative expression of ApoE mRNA, expressed as the frequency of SAGE tags, in mouse skin and lung tissues was determined using the public mSAGE Expression Matrix database available through the NCI-funded Cancer Genome Anatomy Project (CGAP). (FIG. 29K) Relative expression of ApoE mRNA, determined by qRT-PCR, in MeWo melanoma cells dissociated from lung metastatic nodules (LM2) or primary tumors relative to control unselected MeWo parental cells. n=3.
FIG. 30A-I. LXRβ Agonism Suppresses Melanoma Tumor Growth and Metastasis by Inducing Melanoma-Derived and Systemic ApoE Expression. […] (FIG. 30B) Quantification of ApoE protein expression based on western blots shown in (FIG. 30A). […] (FIG. 30C) Expression levels of ApoE, determined by qRT-PCR, in systemic white blood cells from mice fed a control diet or a diet supplemented with GW3965 or T0901317 at 20 mg/kg for 10 days. n=3-6. […] Once the tumors reached 5-10 mm3 in volume, mice were fed a control diet or a diet supplemented with GW3965 (20 mg/kg) for 7 days, after which final tumor volume was measured. […] (FIG. 30E) ApoE transcript levels, quantified by qRT-PCR, in systemic white blood cells extracted from LXRα−/− or LXRβ−/− mice fed a control diet or a GW3965-supplemented diet (20 mg/kg) for 10 days. n=3-5. […]

[1] = tested on: extracellular ApoE protein; test: ApoE ELISA of conditioned media; assay type: cell-based, human; conditions: MeWo cells, 1 μM, 72 hours
Procedure: Extracellular ApoE levels in serum-free conditioned media from melanoma cells treated with DMSO, GW3965, or T0901317 (1 μM each) were quantified using the ApoE ELISA kit (Innovative Research) at 72 hours following treatment.

[2] = tested on: ApoE promoter fused to ME.1 or ME.2 in MeWo cells; test: ApoE promoter activity (luciferase) assay; assay type: cell-based, human; conditions: 1 μM, 24 hours
Excerpt: The ApoE promoter, consisting of a sequence spanning 980 base pairs upstream and 93 base pairs downstream of the ApoE gene, was cloned into a pGL3-Basic vector (E1751, Promega Corporation, Madison, Wis.) upstream of the firefly luciferase gene using NheI and SacI restriction enzymes. Then, multi-enhancer elements 1 (ME.1) and 2 (ME.2) were cloned directly upstream of the ApoE promoter using MluI and […] restriction enzymes. To assess ApoE promoter- and ME.1/ME.2-driven transcriptional activation by LXR agonists, 5×10^4 MeWo cells were seeded into a 24-well plate. The following day, 100 ng of pGL3-ME.1/ME.2-ApoE promoter construct and 2 ng of pRL-CMV renilla luciferase construct (E2261, Promega) were co-transfected into cells in the presence of DMSO, GW3965, or T0901317 at 1 μM, each condition in quadruplicate. To assess transcriptional activation by LXRα or LXRβ, 5×10^4 MeWo cells expressing a control shRNA or shRNA targeting LXRα or LXRβ were seeded into a 24-well plate. […] After 24 hours, cells were lysed, and cell lysate was analyzed for firefly and renilla luciferase activity using the Dual Luciferase Assay System (E1960, Promega) and a Bio-Tek Synergy NEO Microplate Reader. Firefly luciferase signal was normalized to renilla luciferase signal and all data are expressed relative to the luciferase activity ratio measured in the DMSO-treated control cells.

| SMILES | ApoE protein expression in systemic adipose, lung, and brain tissues (ApoE) | ApoE transcript levels in circulating white blood cells (ApoE) | levels of secreted ApoE protein [1] | activity of luciferase reporter with ApoE promoter fused to ME.1 or ME.2 [2] |
| --- | --- | --- | --- | --- |
| O=S(=O)(c1ccccc1)N(CC(F)(F)F)c1ccc(C(O)(C(F)(F)F)C(F)(F)F)cc1 [T0901317 1] | significantly elevated | upregulated | elevated levels | enhance |
| O=C(O)Cc1cccc(OCCCN(Cc2cccc(C(F)(F)F)c2Cl)CC(c2ccccc2)c2ccccc2)c1 [GW3965 2, 3-[3-[N-(2-Chloro-3-trifluoromethylbenzyl)-(2,2-diphenylethyl)amino]propyloxy]phenylacetic acid hydrochloride] | significantly elevated | upregulated | elevated levels | enhance |

From US9399028B2, “Treatment of drug resistant cancer” (ROCKEFELLER UNIVERSITY (THE), priority 2012, dated 2016)
